This note sets out measurements from patent US11267823B2, “Substituted 1,2,3,3a,4,5,7,9,13,13a-decahydropyrido[1′,2′:4,5]pyrazino[1,2-a]pyrrolo[1,2-c]pyrimidines having HIV integrase inhibitory activity” (Shionogi & Co., Ltd., priority 2005, dated 2022).

The target in the assay is HIV integrase (Human immunodeficiency virus type 1 group M subtype B (isolate HXB2) (HIV-1), UniProt P04585). Nature of the assay: HIV integrase inhibitory activity assay (immunoplate strand transfer, OD405). The assay is classed as biochemical. Particulars: read-out: Integrase inhibitory activity (IC50, ng/ml) (converted). The procedure: The HIV integrase inhibitory activity was investigated based on the following assay method.
(1) Preparation of DNA Solution
By the same method as that described in Experimental Example 1 of WO 2004/024693, a substrate DNA solution (2 pmol/μl) and a target DNA solution (5 pmol/μl) were prepared. […] Each sequence of a substrate DNA and a target DNA is as described in the same Experimental Example.
(2) Measurement of Inhibition Rate (IC50 Value)
Streptavidin (manufactured by Vector Laboratories) was dissolved in a 0.1M carbonate buffer solution (composition: […] Na2CO3, 10 mM NaHCO3) to a concentration of 40 μg/ml, Each 50 μl of this solution was added to a well of an immunoplate (manufactured by NUNC), this is allowed to stand at 4° C. overnight to adsorb. Then, each well was washed with a phosphate buffer (composition: 13.7 mM NaCl, 0.27 mM KCl, 0.43 mM Na2HPO4, 0.14 mM KH2PO4) two times, and 300 μl of a phosphate buffer containing 1% skim milk to block it for 30 minutes. Further, each well was washed with a phosphate buffer two times, 50 μl of a substrate DNA solution (2 pmol/μl) was added to adsorb at room temperature for 30 minutes while shaking, and this was washed with a phosphate buffer two times and, then, distilled water once.
Then, to each well prepared as described above were added 12 μl of a buffer (composition: 150 mM MOPS (pH7.2), 75 mM MnCl2, 50 mM 2-mercaptoethanol, 25% glycerol, 500 μg/ml bovine serum albumin-fraction V), and 51 μl of a reaction solution prepared from 39 μl of distilled water. Then, 9 μl of an integrase solution (30 pmol) was added, and the mixture was mixed well. To a well as a negative control (NC) was added 9 μl of a diluting solution (composition: 20 mM MOPS (pH7.2), 400 mM potassium glutamate, 1 mM EDTA, 0.1% NP-40, 20% glycerol, 1 mM DTT, 4 M urea), and this was mixed well using a plate mixer. […]
C abs.: absorbance of well of compound
NC abs.: absorbance of NC
PC abs.: absorbance of PC

In the case of `CC(=O)N1CCCN2C(=O)c3c(O)c(=O)c(C(=O)NCc4ccc(F)cc4)cn3CC12` (stereo not shown) [Example H-2, 1-Acetyl-5-hydroxy-6,10-dioxo-1,2,3,4,6,9,9a,10-octahydro-1,4a,8a-triaza-anthracene-7-carboxylic acid 4-fluoro-benzylamide], the IC50 is 7.47 nM.
